Reference: US4632940A, “N-substituted 1-(4'-alkylsulfonylphenyl)-2-amino-1,3-propanediols, pharmaceutical compositions containing them, having local anesthetic activity” (Zambon S.p.A., priority 1983, dated 1986)
Where a name gives a salt, the structure may show the parent alone.

Experiments:
Format in all cases: in vivo
[1] = tested on: cutaneous reflex after stimulation (guinea-pig back); assay: Local anesthetic activity, intradermal infiltration in the back of guinea-pig (Bulbring and Wayda); conditions: drug concentration inhibiting 50% of the occurence of the cutaneous reflex, 95% c.l. in parentheses
in vivo = conditions: in vivo, iv
From the text: (§1) Toxicity study in mouse has been performed by intravenous administration.

mouse = assay: in vivo; conditions: for LD50: mouse, i.v., administered as hydrochloride, observed for 24 hrs, 1440 min; for Therapeutic Index LD50/ED50: ratio of LD50 (mouse, i.v.) to ED50 (guinea pig local infiltration)
From the text: as §1

With CS(=O)(=O)c1ccc([C@H](O)[C@H](CO)NCCC(c2ccccc2)c2ccccc2)cc1 [Z. 1396] the “LOCAL ANESTHETIC ACTIVITY ED50 (c.l. 95%)” value [1] was 0.36 (0.21-0.60) mM, the selectivity ratio (in vivo; ratio of LD50 (mouse, i.v.) to ED50 (guinea pig local infiltration), read-out: Therapeutic Index LD50/ED50) was 0.5 and the LD50 at 24 h (in vivo; mouse, administered as hydrochloride, observed for 24 hrs) was 160 µmol/kg.
In the case of CC(COc1ccccc1)N[C@@H](CO)[C@@H](O)c1ccc(S(C)(=O)=O)cc1 (relative stereo) [Z. 1403, (1S,2S)-1-(4-methylsulfonylphenyl)-2-(1-methyl-2-phenoxyethylamino)-1,3-propanediol], the “LOCAL ANESTHETIC ACTIVITY ED50 (c.l. 95%)” value [1] is reported as 0.049 mM, the LD50 (mouse) is reported as 0.80 mmols/kg/iv and the “Therapeutic Index LD50/ED50” value (mouse) is reported as 16.
For CC(COc1ccccc1)N[C@@H](CO)[C@@H](O)c1ccc(S(C)(=O)=O)cc1 (relative stereo) [Z. 1402, (1S,2S)-1-(4-methylsulfonylphenyl)-2-(1-methyl-2-phenoxyethylamino)-1,3-propanediol], the “LOCAL ANESTHETIC ACTIVITY ED50 (c.l. 95%)” value [1] was 0.075 (0.05-0.1) mM, the LD50 (mouse) was 0.30 mmols/kg/iv and the “Therapeutic Index LD50/ED50” value (mouse) was 4.
With CCN(CC)CC(=O)Nc1c(C)cccc1C [Lidocaine, reference compound] the “LOCAL […] ED50 (c.l. 95%)” value [1] was 0.49 (0.34-0.71) mM.
With CS(=O)(=O)c1ccc([C@@H](O)[C@@H](CO)NCCC(c2ccccc2)c2ccccc2)cc1 [Z. 1395, (1R,2R)-1-(4-methylsulfonylphenyl)-2-(3,3-diphenylpropylamino)-1,3-propanediol maleate acid] the “LOCAL ANESTHETIC ACTIVITY ED50 (c.l. 95%)” value [1] was 0.73 (0.57-0.94) mM.
For CCN(CC)CCOC(=O)c1ccc(N)cc1 [Procaine, reference compound], the “LOCAL ANESTHETIC ACTIVITY ED50 (c.l. 95%)” value [1] was 2.3 (1.7-3.1) mM.
